From ChEMBL document CHEMBL3045009, “Synthesis and Biological Activity of the Functional Derivatives of 3- and 4-(Dimethyl-aminomethyl)-1,2-dithiolanes” (1992)

Columns and labels:
Type in all cases: functional
[1] = system: Chilo suppressalis; experiment: Insecticidal activity against Chilo suppressalis (rice stem borer) assessed as mortality at 50 ug/g administered as topical application
[2] = system: Culex pipiens molestus; experiment: Insecticidal activity against Culex pipiens molestus assessed as mortality at 5 ppm; details: for mortality at 5 ppm: Culex pipiens
[3] = system: Tetranychus urticae; experiment: Acaricidal activity against Tetranychus urticae (two-spotted spider mite) assessed as mortality at 500 ppm; details: for mortality at 500 ppm: Tetranychus urticae
[4] = system: Spodoptera litura; experiment: Insecticidal activity against Spodoptera litura assessed as mortality at 500 ppm; details: for mortality at 500 ppm: Spodoptera litura
[5] = system: Chilo suppressalis; experiment: Insecticidal activity against Chilo suppressalis (rice stem borer) assessed as mortality compound administered as topical application
[6] = system: Nilaparvata lugens; experiment: Insecticidal activity against Nilaparvata lugens (brown planthopper) assessed as mortality at 50 ppm; details: for mortality at 50 ppm: Nilaparvata lugens

CCN(CC)C(=O)[C@]1(C#N)SC[C@@H](CN(C)C)CS1.O=C(O)C(=O)O
mortality [1]: 100%
mortality at 5 ppm [2]: 95%
mortality at 500 ppm [3]: 100%
mortality at 500 ppm [4]: 100%
LD50 [5]: 5.8 mg/kg
mortality at 50 ppm [6]: 100%

CN(C)CC(CCSC(=O)c1ccccc1)SC(=O)c1ccccc1.O.O=C(O)C(=O)O (configuration not stated)
mortality [1]: 100%
mortality [2]: 100%
mortality [3]: 100%
mortality [4]: 0%
mortality [6]: 100%

CN(C)C[C@@H]1CCSC(C#N)(c2ccc(Cl)cc2)S1.O=C(O)C(=O)O (mixture of isomers)
mortality [1]: 100%
mortality at 5 ppm [2]: 90%
mortality at 500 ppm [3]: 100%
mortality at 500 ppm [4]: 0%
LD50 [5]: 20.7 mg/kg
mortality at 50 ppm [6]: 90%

CC(C)NC(=O)SCC(CSC(=O)NC(C)C)CN(C)C.O=C(O)C(=O)O
mortality [1]: 100%
mortality at 5 ppm [2]: 100%
mortality [3]: 90%
mortality at 500 ppm [4]: 0%
LD50 [5]: 30.5 mg/kg
mortality [6]: 0%

CCOP(=O)(OCC)[C@]1(C#N)SC[C@@H](CN(C)C)CS1.O=C(O)C(=O)O
mortality [1]: 100%
mortality at 5 ppm [2]: 100%
mortality at 500 ppm [3]: 100%
mortality at 500 ppm [4]: 70%
mortality at 50 ppm [6]: 100%

CCC(=O)SCCC(CN(C)C)SC(=O)CC.O=C(O)C(=O)O (configuration not stated)
mortality [1]: 100%
mortality at 5 ppm [2]: 20%
mortality at 500 ppm [3]: 80%
mortality at 500 ppm [4]: 40%
mortality at 50 ppm [6]: 70%

CCOC(=O)[C@H]1SC[C@H](CN(C)C)CS1.O=C(O)C(=O)O
mortality [1]: 0%
mortality at 5 ppm [2]: 5%
mortality at 500 ppm [3]: 100%
mortality at 500 ppm [4]: 0%
mortality at 50 ppm [6]: 30%

CNC(=O)SCCC(CN(C)C)SC(=O)NC (configuration not stated)
mortality [1]: 100%
mortality at 5 ppm [2]: 5%
mortality at 500 ppm [3]: 30%
mortality at 500 ppm [4]: 0%
mortality at 50 ppm [6]: 100%

CCN(CC)C(=O)[C@]1(C#N)SC[C@H](CN(C)C)CS1.O=C(O)C(=O)O
mortality [1]: 100%
mortality at 5 ppm [2]: 100%
mortality at 500 ppm [3]: 100%
mortality at 500 ppm [4]: 100%
LD50 [5]: 7.2 mg/kg
mortality at 50 ppm [6]: 80%

CN(C)CC(CS)CS.O=C(O)C(=O)O
mortality [1]: 100%
mortality at 5 ppm [2]: 100%
mortality at 500 ppm [3]: 100%
mortality at 500 ppm [4]: 30%
mortality at 50 ppm [6]: 100%

CN(C)CC1CSSC1.O=C(O)C(=O)O
mortality [1]: 100%
mortality at 5 ppm [2]: 100%
mortality at 500 ppm [3]: 100%
mortality at 500 ppm [4]: 90%
LD50 [5]: 11.4 mg/kg
mortality at 50 ppm [6]: 100%

CCC(=O)SCC(CSC(=O)CC)CN(C)C.O=C(O)C(=O)O
mortality [1]: 100%
mortality [2]: 75%
mortality at 500 ppm [3]: 100%
mortality [4]: 0%
LD50 [5]: 6.6 mg/kg
mortality at 50 ppm [6]: 70%

CN(C)CC1CCS[S+]1[O-].O=C(O)C(=O)O (configuration not stated)
mortality [1]: 100%
mortality at 5 ppm [2]: 100%
mortality at 500 ppm [3]: 100%
mortality at 500 ppm [4]: 0%
LD50 [5]: 7.5 mg/kg
mortality at 50 ppm [6]: 100%

CN(C)CC(CCSC(=O)c1ccccc1)SC(=O)c1ccccc1.Cl (configuration not stated)
mortality [1]: 100%
mortality at 5 ppm [2]: 95%
mortality at 500 ppm [3]: 100%
mortality [4]: 50%
mortality at 50 ppm [6]: 100%

CC(=O)SCC(CSC(C)=O)CN(C)C.O=C(O)C(=O)O
mortality [1]: 100%
mortality at 5 ppm [2]: 100%
mortality at 500 ppm [3]: 100%
mortality at 500 ppm [4]: 70%
LD50 [5]: 32.5 mg/kg
mortality at 50 ppm [6]: 100%

CN(C)CC1CSC(C(=O)c2ccccc2)(C(=O)c2ccccc2)SC1.O=C(O)C(=O)O
mortality [1]: 100%
mortality at 5 ppm [2]: 100%
mortality at 500 ppm [3]: 100%
mortality at 500 ppm [4]: 0%
mortality at 50 ppm [6]: 100%

CC(=O)SCCC(CN(C)C)SC(C)=O (configuration not stated)
mortality [1]: 100%
mortality at 5 ppm [2]: 80%
mortality at 500 ppm [3]: 100%
mortality at 500 ppm [4]: 10%
mortality at 50 ppm [6]: 80%

CCN(CC)C(=O)[C@]1(C#N)SC[C@H](CN(C)C)CS1
mortality [1]: 100%
mortality [2]: 100%
mortality [3]: 90%
mortality [4]: 100%
LD50 [5]: 5.6 mg/kg
mortality [6]: 100%

CN(C)C[C@@H]1CCSC(C(=O)c2ccccc2)(C(=O)c2ccccc2)S1.O.O=C(O)C(=O)O
mortality [1]: 100%
mortality [2]: 65%
mortality at 500 ppm [3]: 100%
mortality [4]: 0%
LD50 [5]: 7.5 mg/kg
mortality at 50 ppm [6]: 100%

CCOC(=O)CSCC(CSCC(=O)OCC)CN(C)C.O=C(O)C(=O)O
mortality [1]: 0%
mortality at 5 ppm [2]: 0%
mortality at 500 ppm [3]: 80%
mortality at 500 ppm [4]: 0%
mortality at 50 ppm [6]: 40%

CCOP(=O)(OCC)[C@]1(C#N)SC[C@H](CN(C)C)CS1.O=C(O)C(=O)O
mortality [1]: 60%
mortality at 5 ppm [2]: 100%
mortality at 500 ppm [3]: 100%
mortality at 500 ppm [4]: 10%
mortality at 50 ppm [6]: 80%

CN(C)C(CSS(=O)(=O)c1ccccc1)CSS(=O)(=O)c1ccccc1 [BENSULTAP]
LD50 [5]: 3.7 mg/kg

CN(C)CC(CSC(N)=O)CSC(N)=O.Cl.O
mortality [1]: 100%
mortality at 5 ppm [2]: 100%
mortality at 500 ppm [3]: 80%
mortality at 500 ppm [4]: 100%
LD50 [5]: 12.6 mg/kg
mortality at 50 ppm [6]: 100%

CC(C)NC(=O)SCC(CSC(=O)NC(C)C)CN(C)C
mortality [1]: 100%
mortality [2]: 100%
mortality [3]: 60%
mortality [4]: 0%
mortality [6]: 20%

CSCCC(CN(C)C)SC.O=C(O)C(=O)O (configuration not stated)
mortality [1]: 0%
mortality at 5 ppm [2]: 0%
mortality [3]: 100%
mortality at 500 ppm [4]: 0%
mortality [6]: 30%

CN(C)CC(CSC(=O)N(C)C)CSC(=O)N(C)C.O=C(O)C(=O)O
mortality [1]: 20%
mortality at 5 ppm [2]: 0%
mortality at 500 ppm [3]: 100%
mortality at 500 ppm [4]: 0%
mortality at 50 ppm [6]: 30%

CN(C)C[C@H]1CS[C@](C#N)(c2ccc(Cl)cc2)SC1
mortality [1]: 100%
mortality at 5 ppm [2]: 100%
mortality at 500 ppm [3]: 70%
mortality at 500 ppm [4]: 0%
mortality at 50 ppm [6]: 100%

CN(C)C[C@H]1CS[C@@](C#N)(c2ccc(Cl)cc2)SC1
mortality [1]: 100%
mortality at 5 ppm [2]: 100%
mortality at 500 ppm [3]: 90%
mortality at 500 ppm [4]: 0%
mortality at 50 ppm [6]: 100%

CN(C)CC(CSS(=O)(=O)c1ccccc1)CSS(=O)(=O)c1ccccc1.O=C(O)C(=O)O
mortality [1]: 100%
mortality at 5 ppm [2]: 0%
mortality at 500 ppm [3]: 100%
mortality at 500 ppm [4]: 80%
mortality at 50 ppm [6]: 100%

CCOC(=O)C1SCC(CN(C)C)CS1 (mixture of isomers)
mortality [1]: 0%
mortality at 5 ppm [2]: 0%
mortality at 500 ppm [3]: 20%
mortality at 500 ppm [4]: 0%
mortality at 50 ppm [6]: 90%

CN(C)CC(S)CCS.O=C(O)C(=O)O (configuration not stated)
mortality [1]: 100%
mortality at 5 ppm [2]: 45%
mortality at 500 ppm [3]: 100%
mortality at 500 ppm [4]: 60%
mortality at 50 ppm [6]: 100%

CSCCC(CN(C)C)SC (configuration not stated)
mortality [1]: 0%
mortality [2]: 0%
mortality [3]: 20%
mortality [4]: 0%
mortality [6]: 10%

CN(C)C1CSSSC1.O=C(O)C(=O)O [THIOCYCLAM HYDROGEN OXALATE]
mortality [1]: 100%
mortality at 5 ppm [2]: 100%
mortality at 500 ppm [3]: 80%
mortality at 500 ppm [4]: 20%
mortality at 50 ppm [6]: 100%

CN(C)CC1CS[S+]([O-])C1.O=C(O)C(=O)O (configuration not stated)
mortality [1]: 100%
mortality at 5 ppm [2]: 0%
mortality at 500 ppm [3]: 100%
mortality at 500 ppm [4]: 70%
mortality at 50 ppm [6]: 100%
